From patent US11708344B2, “Flavone derivatives for the treatment and prophylaxis of hepatitis B virus disease” (Hoffmann-La Roche Inc., priority 2018, dated 2023) come the findings set out here.

Series [1] has as its system HBeAg (surrogate marker for cccDNA) in HepDES19 cells. Kind of series: Engineered HepDES19 primary screen assay (HBeAg ELISA). The class given is cell-based, HBV. To be noted: Hepatitis B virus, HepDES19, 120 h, read-out: IC50 (HBeAg level, HepDES19 primary screen assay), HepDES19 cells, 5 days compound incubation, HBeAg ELISA. A digest of the protocol:
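HepDES19 cells were induced by Tet withdrawal for 8 days, then treated with half-log compound dilutions (1% DMSO final) for 5 days at 37 °C. HBeAg was measured by ELISA as the cccDNA surrogate, viability by CCK-8, and IC50 from a 4-parameter logistic fit.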

A short description of series [2]: Human microsome stability assay. The class given is in vitro ADME. Conditions: human liver microsomes, 1 μM test compound, 0.5 mg/mL microsomal protein, 37° C., pH 7.4, 0-30 minutes. A digest of the protocol: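 Compound (1 μM) incubated at 37 °C with human liver microsomes (0.5 mg/mL protein) in 100 mM potassium phosphate, pH 7.4, after 10 min preincubation; started with NADPH regenerating system. Sampled at 0–30 min, quenched with cold ACN; remaining parent quantified by LC-MS/MS, with no-NADPH controls.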
In general terms: Liver microsomes are a subcellular fraction often used to study metabolism.

On to `Cc1ccc(OCCO[C@H]2C[C@H](C(=O)O)C2)c(-c2cc(=O)c3cccc(Cl)c3o2)c1` [Example C050-B, Trans-3-[2-[2-(8-chloro-4-oxo-chromen-2-yl)-4-methyl-phenoxy]ethoxy]cyclobutanecarboxylic acid], for which the 50% inhibitory concentration (IC50) (in general, the midpoint of a concentration-inhibition curve) in series [1] was determined as 0.137 µM. Besides, the “Clearance of Human microsome” value in series [2] came to 6.15 mL/min/kg.
Consider `CCOc1ccc(OCCO[C@H]2C[C@@H](C(=O)O)C2)c(-c2cc(=O)c3cccc(Cl)c3o2)c1` [Example C051-A, Cis-3-[2-[2-(8-chloro-4-oxo-chromen-2-yl)-4-ethoxy-phenoxy]ethoxy]cyclobutanecarboxylic acid], for which, in series [1], the IC50 is 4.14 µM. Moreover, the “Clearance of Human microsome” value in series [2] was 6.15 mL/min/kg.
Regarding `CCOc1ccc(OCCO[C@H]2C[C@H](C(=O)O)C2)c(-c2cc(=O)c3cccc(Cl)c3o2)c1` [Example C051-B, Trans-3-[2-[2-(8-chloro-4-oxo-chromen-2-yl)-4-ethoxy-phenoxy]ethoxy]cyclobutanecarboxylic acid], in series [1], the IC50 worked out at 9.41 µM. The “Clearance of Human microsome” value in series [2] is on record as 7.85 mL/min/kg.
For the molecule `O=c1cc(-c2ccc(OC(F)(F)F)cc2OCCO[C@H]2C[C@@H](C(=O)O)C2)oc2c(Cl)cccc12` [Example C052-A, Cis-3-[2-[2-(8-chloro-4-oxo-chromen-2-yl)-5-(trifluoromethoxy)phenoxy]ethoxy]cyclobutanecarboxylic acid], the IC50 in series [1] amounted to 5.99 µM. Besides, the “Clearance of Human microsome” value in series [2] stood at 9.08 mL/min/kg.
With `O=c1cc(-c2ccc(Br)cc2OCCCO[C@H]2C[C@@H](C(=O)O)C2)oc2c(Cl)cccc12` [Example C056-A, Cis-3-[3-[5-bromo-2-(8-chloro-4-oxo-chromen-2-yl)phenoxy]propoxy]cyclobutanecarboxylic acid], the IC50 in series [1] stood at 2.39 µM. The “Clearance of Human microsome” value in series [2] is given as 6.15 mL/min/kg.
In the case of `O=c1cc(-c2cc(Cl)c(Br)cc2OCCO[C@H]2C[C@@H](C(=O)O)C2)oc2c(Cl)cccc12` [Example C057-A, Cis-3-[2-[5-bromo-4-chloro-2-(8-chloro-4-oxo-chromen-2-yl)phenoxy]ethoxy]cyclobutanecarboxylic acid], the IC50 in series [1] is 5.01 µM. In series [2], the “Clearance of Human microsome” value is 8.0 mL/min/kg.
Regarding `COc1ccc(OCCOC2CC(C(=O)O)C2)c(-c2cc(=O)c3cccc(Cl)c3o2)c1` (centres unmarked) [Example C060, 3-[2-[2-(8-chloro-4-oxo-chromen-2-yl)-4-methoxy-phenoxy]ethoxy]cyclobutanecarboxylic acid], the IC50 in series [1] turned out to be 9.81 µM. For the same molecule, the “Clearance of Human microsome” value in series [2] is recorded as 6.15 mL/min/kg.
The corresponding values for `O=c1cc(-c2ccc(N3CCCC3)cc2OCCO[C@H]2C[C@@H](C(=O)O)C2)oc2c(Cl)cccc12` [Example C068, cis-3-[2-[2-(8-chloro-4-oxo-chromen-2-yl)-5-pyrrolidin-1-yl-phenoxy]ethoxy]cyclobutanecarboxylic acid] are 4.74 µM and 6.15 mL/min/kg.
For `O=c1cc(-c2cccc(Br)c2OCCO[C@H]2C[C@@H](C(=O)O)C2)oc2c(Cl)cc(F)cc12` [Example C070, Cis-3-[2-[2-bromo-6-(8-chloro-6-fluoro-4-oxo-chromen-2-yl)phenoxy]ethoxy]cyclobutanecarboxylic acid], in that order: 13.1 µM and 9.42 mL/min/kg.
On to `O=c1cc(-c2c(F)cc(Br)cc2OCCO[C@H]2C[C@@H](C(=O)O)C2)oc2c(Cl)cccc12` [Example C071, Cis-3-[2-[5-bromo-2-(8-chloro-4-oxo-chromen-2-yl)-3-fluoro-phenoxy]ethoxy]cyclobutanecarboxylic acid], for which the IC50 in series [1] was determined as 10.8 µM. For the same molecule, in series [2], the “Clearance of Human microsome” value turned out to be 6.15 mL/min/kg.
Turning to `COc1cc(OCCO[C@H]2C[C@@H](C(=O)O)C2)c(-c2cc(=O)c3cccc(Cl)c3o2)cc1OC` [Example C072, Cis-3-[2-[2-(8-chloro-4-oxo-chromen-2-yl)-4,5-dimethoxy-phenoxy]ethoxy]cyclobutanecarboxylic acid], the IC50 in series [1] came out at 6.31 µM. The “Clearance of Human microsome” value in series [2] amounted to 6.15 mL/min/kg.
For `O=c1cc(-c2cc3c(cc2OCCO[C@H]2C[C@@H](C(=O)O)C2)OCCO3)oc2c(Cl)cccc12` [Example C074, Cis-3-[2-[[7-(8-chloro-4-oxo-chromen-2-yl)-2,3-dihydro-1,4-benzodioxin-6-yl]oxy]ethoxy]cyclobutanecarboxylic acid], the half-maximal inhibitory concentration (IC50) in series [1] was 7.28 µM. In series [2], the “Clearance of Human microsome” value is 6.15 mL/min/kg.
As for `Cc1cc(OCCO[C@H]2C[C@@H](C(=O)O)C2)c(-c2cc(=O)c3cccc(Cl)c3o2)cc1C(F)F` [Example C075, Cis-3-[2-[2-(8-chloro-4-oxo-chromen-2-yl)-4-(difluoromethyl)-5-methyl-phenoxy]ethoxy]cyclobutanecarboxylic acid], the half-inhibitory concentration (IC50) in series [1] stood at 10.9 µM. Besides, the “Clearance of Human microsome” value in series [2] stood at 6.15 mL/min/kg.
Regarding `COc1cc(-c2cc(=O)c3cccc(Cl)c3o2)c(OCCO[C@H]2C[C@@H](C(=O)O)C2)cc1O` [Example C076, Cis-3-[2-[2-(8-chloro-4-oxo-chromen-2-yl)-5-hydroxy-4-methoxy-phenoxy]ethoxy]cyclobutanecarboxylic acid], the IC50 in series [1] stood at 0.502 µM. Also, the “Clearance of Human microsome” value in series [2] worked out at 6.15 mL/min/kg.
Take `COc1cc(-c2cc(=O)c3cccc(Cl)c3o2)c(OCCO[C@H]2C[C@@H](C(=O)O)C2)cc1OCC1CC1` [Example C079, Cis-3-[2-[2-(8-chloro-4-oxo-chromen-2-yl)-5-(cyclopropylmethoxy)-4-methoxy-phenoxy]ethoxy]cyclobutanecarboxylic acid]: in series [1], the IC50 is 5.5 µM. The “Clearance of Human microsome” value in series [2] amounted to 6.15 mL/min/kg.
Consider `COc1cc(OCCO[C@H]2C[C@@H](C(=O)O)C2)c(-c2cc(=O)c3cccc(Cl)c3o2)cc1O` [Example C083, cis-3-[2-[2-(8-chloro-4-oxo-chromen-2-yl)-4-hydroxy-5-methoxy-phenoxy]ethoxy]cyclobutanecarboxylic acid], for which the IC50 in series [1] turned out to be 4.59 µM. For the same molecule, the “Clearance of Human microsome” value in series [2] is reported as 6.15 mL/min/kg.
The corresponding values for `O=c1cc(-c2cc(OC(F)F)c(OC(F)F)cc2OCCO[C@H]2C[C@@H](C(=O)O)C2)oc2c(Cl)cccc12` [Example C087, cis-3-[2-[2-(8-chloro-4-oxo-chromen-2-yl)-4,5-bis(difluoromethoxy)phenoxy]ethoxy]cyclobutanecarboxylic acid] are 6.35 µM and 6.15 mL/min/kg.
For `CCOc1cc(OCCO[C@H]2C[C@@H](C(=O)O)C2)c(-c2cc(=O)c3cccc(Cl)c3o2)cc1OCC` [Example C088, Cis-3-[2-[2-(8-chloro-4-oxo-chromen-2-yl)-4,5-diethoxy-phenoxy]ethoxy]cyclobutanecarboxylic acid], in that order: 10.3 µM and 6.15 mL/min/kg.
For `COc1cc(OCCO[C@H]2C[C@@H](C(=O)O)C2)c(-c2cc(=O)c3cccc(Cl)c3o2)cc1OC(F)(F)F` [Example C089, Cis-3-[2-[2-(8-chloro-4-oxo-chromen-2-yl)-5-methoxy-4-(trifluoromethoxy)phenoxy]ethoxy]cyclobutanecarboxylic acid], the IC50 in series [1] worked out at 3.78 µM. Moreover, the “Clearance of Human microsome” value in series [2] amounted to 6.15 mL/min/kg.
`CC1(C)C(=O)Nc2cc(-c3cc(=O)c4cccc(Cl)c4o3)c(OCCO[C@H]3C[C@@H](C(=O)O)C3)cc21` [Example C092, cis-3-[2-[6-(8-chloro-4-oxo-chromen-2-yl)-3,3-dimethyl-2-oxo-indolin-5-yl]oxyethoxy]cyclobutanecarboxylic acid]: in series [1], the IC50 was 11.2 µM. Also, the “Clearance of Human microsome” value in series [2] is 6.15 mL/min/kg.
For `CN1C(=O)C(C)(C)c2cc(OCCO[C@H]3C[C@@H](C(=O)O)C3)c(-c3cc(=O)c4cccc(Cl)c4o3)cc21` [Example C093, Cis-3-[2-[6-(8-chloro-4-oxo-chromen-2-yl)-1,3,3-trimethyl-2-oxo-indolin-5-yl]oxyethoxy]cyclobutanecarboxylic acid], in series [1], the IC50 was 7.79 µM. Moreover, the “Clearance of Human microsome” value in series [2] amounted to 6.15 mL/min/kg.
The corresponding values for `O=c1cc(-c2ccccc2OCCO[C@H]2C[C@@H](C(=O)O)C2)oc2c(Cl)ccc(C(F)(F)F)c12` [Example C094, cis-3-[2-[2-[8-chloro-4-oxo-5-(trifluoromethyl)chromen-2-yl]phenoxy]ethoxy]cyclobutanecarboxylic acid] are 0.04 µM and 6.15 mL/min/kg.
Turning to `CCOc1ccc(-c2cc(=O)c3c(C(F)(F)F)ccc(Cl)c3o2)c(OCCO[C@H]2C[C@@H](C(=O)O)C2)c1` [Example C095, cis-3-[2-[2-[8-chloro-4-oxo-5-(trifluoromethyl)chromen-2-yl]-5-ethoxy-phenoxy]ethoxy]cyclobutanecarboxylic acid], the IC50 in series [1] came out at 3.29 µM. The “Clearance of Human microsome” value in series [2] was determined as 9.62 mL/min/kg.
On to `COc1cc(OCCO[C@H]2C[C@@H](C(=O)O)C2)c(-c2cc(=O)c3c(O)ccc(Cl)c3o2)cc1OC` [Example C098, cis-3-[2-[2-(8-chloro-5-hydroxy-4-oxo-chromen-2-yl)-4,5-dimethoxy-phenoxy]ethoxy]cyclobutanecarboxylic acid], for which the IC50 in series [1] stood at 8.56 µM. In addition, the “Clearance of Human microsome” value in series [2] worked out at 6.15 mL/min/kg.
Take `O=c1cc(-c2ccc(C(F)(F)F)cc2OCCO[C@H]2C[C@@H](C(=O)O)C2)oc2c(Cl)ccc(O)c12` [Example C099, cis-3-[2-[2-(8-chloro-5-hydroxy-4-oxo-chromen-2-yl)-5-(trifluoromethyl)phenoxy]ethoxy]cyclobutanecarboxylic acid]: in series [1], the IC50 was 15.7 µM. Further, the “Clearance of Human microsome” value in series [2] amounted to 7.11 mL/min/kg.
